In patent US5922891A, “2-substituted 1,8-dihydroxy-9(10H)-anthracenone pharmaceuticals” (priority 1997, dated 1999):
Where two headings read alike, the source gives them in different places.

Tests used:
[1] = Inhibition of AAPH-induced lipid peroxidation in bovine brain phospholipid liposomes; assay type: biochemical
Description: Phospholipids were prepared essentially as described by Gutteridge, J. M. C., (Anal. Biochem., 82: 76-82 (1977)). Bovine brain tissue was cooled on ice, freed from blood vessels and washed repeatedly with 0.15 M NaCl, pH 7.4. The tissue was cut into pieces and then macerated with an ultra-turrax, passed through a fine-meshed sieve, and extracted four times with four times the volume of acetone. The extraction mixture was filtered by suction to remove the acetone, the residue dried under vacuum, and then repeatedly extracted with petroleum ether (40-60) using twice the volume of the original brain homogenate. The combined extracts were filtered, dried at 45° C., and dissolved in ether (one fifth the original brain volume). The mixture was treated with five times the volume of acetone, and the resulting precipitate was collected by suction-filtration, dried and stored under N2 at -20° C. in the dark. Bovine brain phospholipids were weighed into glass tubes and shaken in a vortex mixer (Heidolph) in the presence of five small glass beads (.phi. 4 mm) for 1 minute. The phospholipids were suspended in 0.15 M NaCl, pH 7.4, to a final concentration of 5 mg/ml. The mixture was purged with N2 for 1 minute and vigorously dispersed in a vortex mixer for 5 minutes. The liposomes were allowed to swell for 1 hour at 4° C., and vesicles with a mean size of 1-10 μm were obtained according to the method of Bangham, et al., (J. Mol. Biol., 13:238-252 (1965). The liposomes were stimulated with the azo initiator 2 2'-azobis (2-amidinopropane) hydrochloride according to the method of Gutteridge, J. M. C., (Anal. Biochem. 82:76-82 (1977)).
The following reagents were added to the glass tubes containing stimulating bovine brain phospholipid piposomes in the order and at the final concentrations listed: 0.3 ml HK2 PO4 --KOH buffer, pH 7.4 (30 mM), 0.29 ml double distilled H2 O, 0.2 ml liposomes (1 mg/ml), 0.2 ml FeCl3.H2 O (0.1 mM), 0.01 ml 2-substituted anthracenone compound of the invention (variable concentrations).
Appropriate blanks and controls using the vehicle (acetone) were conducted. The final reaction volumes were standardized to 1.0 ml. The reaction mixtures were incubated for 1 hour at 37° C. in a shaking water bath. […] of 20% (w/v) BHT, 0.5 ml 25% (w/v) HCl and 0.5 ml of 1% 2-thiobarbituric acid were added and the samples were heated at 100° C. for 15 minutes and then cooled in an ice bath (5 minutes). 2 ml of 1-butanol were added and the mixtures were vigorously shaken in a vortex mixer (Heidolph) for 15 seconds. The organic layer was separated by centrifugation at 3000 rpm (15 minutes) and absorbance at 532 nm was measured against butanol.

[2] = Deoxyribose degradation as a measure of hydroxyl radical formation; assay type: biochemical; settings: 75 μM test compound; controls < 0.1
Description: ^c Deoxyribose degradation as a measure of hydroxyl radical formation
Indicated values are μmoles of malondialdehyde per mmole of deoxyribos
released by 75 μM test compound (controls < 0.1).
Degradation of deoxyribose provides a measurement of the amount of hydroxyl radical formation caused by the test compounds. The assay used to determine degradation of 2-deoxy-D-ribose followed generally the procedures of Gutteridge, J. M. C., Biochem. J., 224: 761-767 (1984) and Laughton, et al., Biochem. Pharmacol., 38: 2859-2865 (1989). The following reagents were added to glass tubes in the order and at the final concentrations listed. 0.3 mL kH2 PO4 --KOH buffer, pH 7.4 (30 mM), 0.2 ml double distilled H2 O, 0.2 ml 2-deoxy-D-ribose (2 mM), 0.2 ml FeCl3.6H2 O (0.1 mM), 0.1 ml 2-substituted anthracenone ([…]). Stock solutions of each of the 2-substituted anthracenone compounds were made up fresh before use. Appropriate blanks and controls using an acetronitrile vehicle were performed.
Final reaction volumes were standardized to 1.0 ml. The reaction mixtures were incubated for 2 hours at 37° C. in a shaking water bath at 50 rpm. 1 ml of 2.8% (w/v) trichloracetic acid and 1 ml of 1% (w/v in 0.05 N NaOH) 2-thiobarbituric acid (TBA) were added, and the samples were heated at 100° C. for 15 minutes and then cooled in an ice bath (5 minutes). 2 ml of each reaction mixture was treated with 0.05 ml of 36% (w/v) HCl and 2 of 1-butanol, followed by vigorous shaking with a vortex mixer (Heidolph) for 15 seconds. The organic layer was separated by centrifugation at 3000 rpm (15 minutes) and absorbance at 532 nm was measured against butanol. Calibration was performed using a malondialdehyde (MDA) standard prepared by hydrolysis of 1,1,3,3-tetraethoxypropane (Gutteridge, J. M. C., Anal. Biochem., 69: 518-526 (1975). TBA reactive material was expressed in terms of μmol MDA per μmol deoxyribose. The results of the assay are provided in Table I.

[3] = target: T1, 5-LO in bovine PMNL (Bos taurus, UniProt F1MQ78); test: Inhibition of 5-lipoxygenase (5-HETE and LTB4 biosynthesis) in Ca-ionophore-stimulated bovine PMNL; assay type: cell-based; settings: N = 3 or more
T1 construct: The purified PMNLs were suspended at a concentration of; endogenous in cells; host or cells: polymorphonuclear leukocytes isolated from bovine blood
T1 sequence (F1MQ78 1-674): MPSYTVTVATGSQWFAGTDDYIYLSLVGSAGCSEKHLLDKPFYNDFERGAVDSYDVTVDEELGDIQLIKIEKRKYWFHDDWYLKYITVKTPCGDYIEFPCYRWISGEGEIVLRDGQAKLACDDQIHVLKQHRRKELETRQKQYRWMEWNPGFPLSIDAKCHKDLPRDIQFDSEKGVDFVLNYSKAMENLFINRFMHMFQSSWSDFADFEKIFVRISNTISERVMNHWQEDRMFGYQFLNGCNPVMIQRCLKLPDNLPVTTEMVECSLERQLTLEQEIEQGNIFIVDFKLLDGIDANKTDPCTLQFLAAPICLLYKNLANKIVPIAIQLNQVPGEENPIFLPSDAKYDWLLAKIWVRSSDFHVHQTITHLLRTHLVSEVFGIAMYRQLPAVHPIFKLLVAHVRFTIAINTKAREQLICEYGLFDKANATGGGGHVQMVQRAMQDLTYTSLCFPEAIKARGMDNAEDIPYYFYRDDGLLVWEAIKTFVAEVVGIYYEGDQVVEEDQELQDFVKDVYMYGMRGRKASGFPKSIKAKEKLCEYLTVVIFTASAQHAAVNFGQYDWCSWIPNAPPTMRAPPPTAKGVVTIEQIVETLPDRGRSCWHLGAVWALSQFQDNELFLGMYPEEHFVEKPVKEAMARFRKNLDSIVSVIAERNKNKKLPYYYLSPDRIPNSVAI
Description: Briefly, PMNLs were prepared from sodium EDTA-anticoagulated bovine blood, essentially as described by Walstra, P. et al., (Biochem. Biophys. Acta, 795:499-503 (1984)). Contaminating platelets were removed by repeated centrifugations at 100 g for 20 minutes. […] Cell counts were conducted with a Sysmex micro cell counter CC-130. Preincubation was performed with 2.4 ml of the suspension and 10 μl of a DMSO stock solution of test compounds at the desired concentrations in phosphate buffered saline (PBS) or vehicle control (DMSO at final concentration of 0.4%) for 15 minutes at 37° C. in a shaking water bath at 50 rpm. […] The incubation mixture was held on ice bath for 20 minutes and then centrifuged at 4000 g for 5 minutes at 0° C. The supernatant was diluted with 5 ml of water and passed through a prewashed (10 ml of methanol and 5 ml of water, sequentially) octadecylsilane reversed phase cartridge (Baker). The eicosanoids were eluted with 3 ml of methanol, diluted with 3 ml of water and subjected to reversed phase HPLC analysis using a 250×4 mm column packed with Nucleosil C18 (7 μm particles; Bischoff, Leonberg, Germany). The isocratic elution conditions of LTB4 were tetrahydrofuran (THF)/methanol/water/acetic acid (25+30+45+0.1), adjusted to pH 5.5 with concentrated NH3, at a flow rate of 0.9 ml/min (Kontron 420 pump), monitored at 280 nm with a Kontron 735 LC UV detector. 5-HETE was monitored at 232 nm using methanol/water/acetic acid (77+23+0.1), pH 5.5 and a flow rate 1.0 ml/min. Data were recorded on a MacLab data acquisition system (WissTech, Germany) and analysis was performed using the application Peaks on an Apple Macintosh Quadra 700 computer. Integrated areas of the peaks were compared to a PGB2 internal standard and to external standards of authentic samples. Molar absorption coefficients of Samuelsson et al., Borgeat, P. and B. Samuelsson, (Proc. Natl. Acad. Sci. USA, 76:2148-2152 (1979)), were used for making calculations. Inhibition was calculated by a comparison of the mean value of test compound (n=3) with control (n=6-8) activity: (1-test compound/control)×100.
See Walstra, P. et al., Biochem Biophys. Acta, 795:499-503 (1984); and Dannhardt et al. J. Pharm. Pharmacol., 44:419-424 (1992). […] (Schroder, J. M., J. Invest. Dermatol., 87:624-629 (1986); Tanzer, et al., Arch. Pharm. (Weinheim), 324:841-846 (1991)).

[4] = test system: HaCaT cells; test: Antiproliferative activity against HaCaT cells (human keratinocyte cell line); assay type: cell-based; settings: 48 h, read-out: AA IC50 (antiproliferative activity)
Description: HaCaT cells were grown in Dulbecco's modified Eagle's medium (DMEM, No. 041-11954A, Gibco) supplemented with 10% fetal calf serum, penicillin (100 U/mL), and streptomycin (100 μg/mL) in a humidified incubator containing 8% CO2 at 37° C. Cells (2.5·10^4 /1.1 ml per well) were seeded on 24-well multidishes and grown in DMEM. After 24 hours of growth, the medium was replaced with fresh medium and a test compound (0.1-5 μM) was added from freshly made stock solutions, which were prepared in DMSO and diluted with DMEM. The final concentration of DMSO in the culture medium was 0.2%. Controls were performed using DMSO or medium alone. Forty-eight hours after addition of a test compound to the culture, the medium was removed and each well was rinsed with phosphate-buffered saline (PBS, 100 μL). The cells were then incubated with sterile 0.5% trypsin, 0.2% EDTA in PBS for 20 minutes at 37° C. The detached cells from each well were suspended in DMEM and dispersed as single cells by gentle pipetting through an Eppendorf pipette. Cell growth was determined directly by counting the keratinocytes on a Neubauer counting chamber using phase contrast microscopy. Inhibition of cell proliferation was calculated by a comparison of the mean value of the test compound (N=3) with the control (N=6-8) activity: (1-test compound/control)×100.

[5] = AAPH-induced, bovine brain phospholipid liposomes, N = 3 or more, read-out: LPO IC50 (inhibition of lipid peroxidation)

Row | Compound | IC50 [1, 5] | DD (deoxyribose degradation, malondialdehyde released) [2] | IC50 [3] | IC50 [4] | IC50 ([1]; NDGA used as the standard, footnote d, read-out: LPO IC50 of the standard)
1 | CN(O)C(=O)CCc1ccc2c(c1O)C(=O)c1c(O)cccc1C2 [IID, N-Hydroxy-N-methyl-3-(9,10-dihydro-1,8-dihydroxy-9-oxo-2-anthracene)propionamide] | 11 µM | 0.92 ± 0.03 μmol of MDA/mmol | – | – | –
2 | COC(=O)CCCc1ccc2c(c1O)C(=O)c1c(O)cccc1C2 [IIIB, Methyl 4-(9,10-Dihydro-1,8-dihydroxy-9-oxo-2-anthracene) butanoate] | – | – | > 30 µM | 1.1 µM | –
3 | CN(O)C(=O)CCCc1ccc2c(c1O)C(=O)c1c(O)cccc1C2 [IIID, N-Hydroxy-N-methyl-4-(9,10-dihydro-1,8-dihydroxy-9-oxo-2-anthracene)butanamide] | 37 µM | 1.50 ± 0.02 μmol of MDA/mmol | – | – | –
4 | CN(O)C(=O)CCCCc1ccc2c(c1O)C(=O)c1c(O)cccc1C2 [IVD, N-Hydroxy-N-methyl-5-(9,10-dihydro-1,8-dihydroxy-9-oxo-2-anthracene)pentanamide] | 16 µM | 1.36 ± 0.05 μmol of MDA/mmol | – | – | –
5 | COC(=O)C(Cc1ccccc1)c1ccc2c(c1O)C(=O)c1c(O)cccc1C2 (centres unmarked) [IXB, Methyl 2-(9,10-Dihydro-1,8-dihydroxy-9-oxo-2-anthracene)-3-phenylpropionate] | – | 0.01 ± 0.00 μmol of MDA/mmol | > 30 µM | 1.8 µM | –
6 | COc1c(OC)c(OC(C)=O)c2cc(Cl)ccc2c1OC(C)=O [Ionapalene, reference compound] | – | – | 0.5 µM | 3.2 µM | –
7 | CC(Cc1ccc(O)c(O)c1)C(C)Cc1ccc(O)c(O)c1 (centres unmarked) [Nordihydroguaiaretic acid (NDGA), Nordihydroguaiaretic acid, reference compound] | – | – | – | – | 2 µM
8 | O=C(O)CCCCCc1ccc2c(c1O)C(=O)c1c(O)cccc1C2 [VA, 6-(9,10-Dihydro-1,8-dihydroxy-9-oxo-2-anthracene) hexanoic acid] | – | 2.29 ± 0.03 μmol of MDA/mmol | 19 µM | – | –
9 | CN(O)C(=O)CCCCCc1ccc2c(c1O)C(=O)c1c(O)cccc1C2 [VD, N-Hydroxy-N-methyl-6-(9,10-dihydro-1,8-dihydroxy-9-oxo-2-anthracene)hexanamide] | 15 µM | – | – | 0.9 µM | –
10 | COC(=O)C(CCc1ccccc1)c1ccc2c(c1O)C(=O)c1c(O)cccc1C2 (centres unmarked) [XB, Methyl 2-(9,10-Dihydro-1,8-dihydroxy-9-oxo-2-anthracene)-4-phenylbutanoate] | – | 0.28 ± 0.03 μmol of MDA/mmol | > 30 µM | – | –
11 | COC(=O)c1ccc(C(=O)c2ccc3c(c2O)C(=O)c2c(O)cccc2C3)cc1 [XIIB, Methyl 4-[(9,10-Dihydro-1,8-dihydroxy-9-oxo-2-anthracene)oxomethyl]benzoate] | – | 2.07 ± 0.12 μmol of MDA/mmol | > 30 µM | 1.8 µM | –
